Experimental data published in PubChem BioAssay AID1361 (SRMLSC, 2008).
Activity calls are given as the source filed them. The rule behind the calls is not given here.

Test: blockers of mitochondrial fusion, WT vs mutant – cell-based, chemical genetic, wild-type and mutant, confirmation (AID 1361)
Settings: Cell-based mitochondrial fusion phenotype, imaging
[1] = mutant cells, measured here: mutant cell line IC50

Compound | IC50 (WT cells) | IC50 [1] [µM]
CC(=O)N(C)c1ccc(OCC(O)Cn2c3ccc(Cl)cc3c3cc(Cl)ccc32)cc1 (centres undefined) | 4.12 µM | > 25
Cc1ccc(NC(=S)N(Cc2ccc(Br)cc2)Cc2ccc(C(=O)O)cc2)cc1C | > 25 µM (inactive) | > 25
CCC(C)n1c(SCc2ccccc2)nc2ccsc2c1=O (centres undefined) | 22.9 µM | > 25
Cc1ccc(C(C)C)cc1OCC(=O)N/N=C/c1ccc2c(c1)OCCO2 | 18.3 µM | > 25
COc1cc(/C=C2\SC(=O)N(c3ccccc3Cl)C2=O)cc([N+](=O)[O-])c1O | 13.6 µM | 20.8
CCOC(=O)N1CCN(CC(O)COC2CC(C)CCC2C(C)C)CC1 (centres undefined) | > 25 µM (inactive) | > 25
CCC(C)(C)NC(=O)C(c1ccc(C)cc1)N(Cc1cccs1)C(=O)c1ccc2c(c1)OCCO2 (centres undefined) | 14.1 µM | > 25
Cc1cc(C)cc(NC(=S)NC2CC3CCC(C2)N3Cc2ccco2)c1 (centres undefined) | > 25 µM (inactive) | > 25
O=C(CNC(=S)N(Cc1ccccc1)Cc1cccs1)NCc1ccc(F)cc1 | > 25 µM (inactive) | > 25
Cc1ccccc1NC(=O)CNc1ccccc1N1CCCCC1 | > 25 µM (inactive) | > 25
O=C(CNC(=S)N(Cc1ccccc1)Cc1ccccc1F)NCCc1ccc(Cl)cc1 | 4.01 µM | > 25
COc1ccc(NC(=O)c2ccc(-c3ccccc3C(F)(F)F)o2)cc1 | 16.4 µM | 21.7
COC(=O)C1=C(O)C(C(=O)OC)C(c2ccc(C)cc2)C(C#N)(C#N)C1c1ccc(C)cc1 (centres undefined) | 4.71 µM | > 25
CCS(=O)(=O)Nc1cccc(-c2cc(-c3ccccc3)c3cc(C)ccc3n2)c1 | 6.46 µM | > 25
O=C(CCc1ccccc1)NC(=S)Nc1cccc(Br)c1 | 13.7 µM | 21.4
Cc1sc(NC(=O)c2ccccc2)c(C(c2ccc(Cl)cc2)N2CCN(CCO)CC2)c1C (centres undefined) | 13.5 µM | > 25
Cc1nn(C(C)(C)C)c(OC(=O)c2cccs2)c1Sc1ccccc1 | 22.1 µM | > 25
Clc1ccc(C2=NNC(=NCc3ccc4c(c3)OCO4)SC2)cc1 | > 25 µM (inactive) | > 25
COc1cc(Nc2nc(-c3ccccc3)c3cc(C)ccc3n2)cc(OC)c1OC | 10.6 µM | > 25
Cc1ccc(-n2cc(CNCCc3cscn3)c(-c3ccc(F)cc3)n2)cc1 | > 25 µM (inactive) | > 25
O=C(Nc1nnc(C2CC2)o1)c1ccc(S(=O)(=O)N2CCCc3ccccc32)cc1 | 13.5 µM | 20.8
CCCCSc1cnn(-c2ccccc2)c(=O)c1SCCCC | 12.7 µM | > 25
Cc1cccc(-c2nnc(SCc3ccccc3)o2)c1 | > 25 µM (inactive) | > 25
COC(=O)c1ccc(NC(=O)Nc2ccc(F)c(Cl)c2)cc1 | 19.4 µM | > 25

Compound | IC50 (WT cells) | IC50 [1] [µM]
COc1cccc(C2CN(c3ccc(F)cc3F)N=C2c2cccs2)c1OC (centres undefined) | 10 µM | > 25
Cc1cccc(-n2c(-c3csc4ccccc34)n[nH]c2=S)c1 | > 25 µM (inactive) | > 25
CCCCCc1nc2sc3c(c2c(=O)n1NC(=O)c1ccc([N+](=O)[O-])cc1)CC(C)(C)OC3 | 15.5 µM | > 25
O=C(CN1CCCCC1)Nc1ccc(Br)cc1C(=O)c1ccccc1Cl | 12 µM | > 25
CCCCCCn1c(N)c(C(=O)NCCN2CCOCC2)c2nc3ccccc3nc21 | > 25 µM (inactive) | > 25
COc1ccc(N2CCN(CCNC(=O)c3nnc(Cc4c(F)cccc4Cl)o3)CC2)cc1 | > 25 µM (inactive) | > 25
O=C(CC(Nc1ccc(F)cc1)c1ccccc1)c1ccccc1 (centres undefined) | 16.5 µM | > 25
CCc1ccc(OCC2c3cc(OC)c(OC)cc3CCN2C(=S)NC)cc1 (centres undefined) | > 25 µM (inactive) | > 25
O=C(O)C1C2C=CC(C2)C1C(=O)Nc1ccc(C(=O)N2CCCCC2)cc1 (centres undefined) | > 25 µM (inactive) | > 25
CCOC(=O)N1CCN(S(=O)(=O)c2ccc(C)c(C)c2)CC1 | > 25 µM (inactive) | > 25
COc1ccc(C(=NNc2ccccc2C(=O)O)c2ccc(OC)cc2)cc1 | 17.8 µM | > 25
O=C(NC(=S)Nc1ccccc1N1CCCCC1)c1ccccc1 | 24.9 µM (inactive) | > 25
C/C(=N\Nc1cc(-c2ccccc2)nc(-c2ccccc2)n1)c1ccc(O)c(C)c1 | 3.31 µM | > 25
C1CCN=C(Nc2nc3c(s2)CCCC3)CC1 | > 25 µM (inactive) | > 25
COCCN1C(=O)/C(=C/c2ccc(OCc3ccc(C(=O)O)cc3)c(OC)c2)SC1=Nc1ccccc1 | > 25 µM (inactive) | > 25
COc1ccc(CCNS(=O)(=O)c2ccc(OC)cc2)cc1 | > 25 µM (inactive) | > 25
CC(C)(C)CC(C)(C)NC(=O)Nc1cccc([N+](=O)[O-])c1 | > 25 µM (inactive) | > 25
CCc1nnc(NC(=O)c2cccc(C(=O)Nc3nnc(CC)s3)n2)s1 | 23.8 µM | > 25
Cc1cc(CC(C)C)n(-c2nc3ccccc3c(=O)n2OCc2ccccc2)n1 | > 25 µM (inactive) | > 25
CCCCN(CCCC)C1=Nc2ccccc2N/C1=C(/C#N)C(=O)OCC | 6.94 µM | > 25
O=c1c2ccccc2[nH]c(=S)n1-c1ccc2c(c1)OCO2 | > 25 µM (inactive) | > 25
COc1ccc(-c2cc3nc(C)cc(N4CC(C)CC(C)C4)n3n2)cc1 (centres undefined) | 17.8 µM | 19.4
O=C(c1ccccc1)c1nnc(-c2ccncc2)o1 | > 25 µM (inactive) | > 25
